Laboratory results published in ChEMBL document CHEMBL4715749, “Synthesis of 17β-N-arylcarbamoylandrost-4-en-3-one derivatives and their anti-proliferative effect on human androgen-sensitive LNCaP cell line” (Eur J Med Chem, 2016).
Activity calls are given as the source filed them. The calls are words filed in the database; no cut-off is given here.

Tests used:
[1] = Cytotoxicity against Wistar rat PBMC assessed as inhibition of cell growth at 50 uM incubated for 24 hrs by sulforhodamine B assay relative to control; format: tissue-based; settings: for Activity: pbmc, 24 h, 50 µM; for inhibition at 24 h, 50 µM: Wistar, peripheral blood mononuclear cells (PBMC)
LNCaP [2] = assay: Antiproliferative activity against androgen-sensitive human LNCAP cells assessed as inhibition of cell growth at 50 uM incubated for 48 hrs by sulforhodamine B assay relative to control; format: functional
LNCaP [3] = assay: Antiproliferative activity against androgen-sensitive human LNCAP cells assessed as inhibition of testosterone-induced cell growth at 50 uM incubated for 48 hrs by sulforhodamine B assay relative to control; format: functional
LNCaP [4] = assay: Antiproliferative activity against androgen-sensitive human LNCAP cells assessed as inhibition of DHT-induced cell growth at 50 uM incubated for 48 hrs by sulforhodamine B assay relative to control; format: functional
PC-3 = assay: Growth inhibition of androgen-insensitive human PC3 cells incubated for 48 hrs by sulforhodamine B assay; format: functional
LNCaP [5] = assay: Growth inhibition of androgen-sensitive human LNCAP cells incubated for 48 hrs by sulforhodamine B assay; format: functional

Row | Structure (SMILES) | Activity [1] | inhibition at 50 µM (LNCaP [2]) [%] | inhibition at 50 µM (LNCaP [3]) [%] | inhibition at 50 µM (LNCaP [4]) [%] | inhibition at 24 h, 50 µM [1] [%] | GI50 (PC-3) [µM] | GI50 (LNCaP [5]) [µM] | inhibition (LNCaP [4])
1 | C[C@]12CC[C@H]3[C@@H](CCC4=CC(=O)CC[C@@]43C)[C@@H]1CC[C@@H]2C(=O)Nc1ccc(Cl)cc1 | Non-Toxic | -6.1 | 1.6 | 13.4 |  |  |  | 
2 | Cc1ccc(NC(=O)[C@H]2CC[C@H]3[C@@H]4CCC5=CC(=O)CC[C@]5(C)[C@H]4CC[C@]23C)cc1 |  | 25.6 | 43.3 | 27.5 | 13 |  |  | 
3 | C[C@]12CC[C@H]3[C@@H](CCC4=CC(=O)CC[C@@]43C)[C@@H]1CC[C@@H]2C(=O)Nc1nccs1 |  | 100 | 100 | 100 | 16.8 | 6.6 | 16 | 
4 | COc1ccc(NC(=O)[C@H]2CC[C@H]3[C@@H]4CCC5=CC(=O)CC[C@]5(C)[C@H]4CC[C@]23C)cc1 |  | 48.7 | 38.6 | 29.7 | 7.9 |  |  | 
5 | C[C@]12CC[C@H]3[C@@H](CCC4=CC(=O)CC[C@@]43C)[C@@H]1CC[C@@H]2C(=O)N1CCc2ccccc21 | Non-Toxic | 69.1 | 49.9 | 52.6 |  |  |  | 
6 | C[C@]12CC[C@H]3[C@@H](CCC4=CC(=O)CC[C@@]43C)[C@@H]1CC[C@@H]2C(=O)Nc1ccccc1 |  | 40.9 | 66.2 | 59.4 | 8.7 |  |  | 
7 | CC(C)C(=O)Nc1ccc([N+](=O)[O-])c(C(F)(F)F)c1 [FLUTAMIDE] | Non-Toxic | -3.4 | 29.6 | 25.1 |  |  |  | 
8 | CC(=O)N1CCN(c2ccc(OCC3COC(Cn4ccnc4)(c4ccc(Cl)cc4Cl)O3)cc2)CC1 (centres undefined) [KETOCONAZOLE] |  | 82.7 | 76 | 68.2 |  | 11.7 | 25 | 
9 | C[C@]12CC[C@H]3[C@@H](CCC4=CC(=O)CC[C@@]43C)[C@@H]1CC[C@@H]2C(=O)Nc1ccc(F)cc1 |  | 29.1 | 44.3 | 29 | 4.1 |  |  | 
10 | CC(C)(C)NC(=O)[C@H]1CC[C@H]2[C@@H]3CC[C@H]4NC(=O)C=C[C@]4(C)[C@H]3CC[C@]12C [FINASTERIDE] |  | 34.6 | 21.1 |  | 3.7 |  |  | inactive
11 | C[C@]12CC[C@H]3[C@@H](CCC4=CC(=O)CC[C@@]43C)[C@@H]1CC[C@@H]2C(=O)Nc1cc(C(F)(F)F)cc(C(F)(F)F)c1 |  | 100 | 100 | 100 | 9.1 | 14.2 | 12.8 | 
